Data taken from patent US9440957B2, “Compounds and compositions for modulating EGFR Activity” (Novartis AG, priority 2012, dated 2016).
Where two headings read alike, the source gives them in different places.

Key:
EGFR(L858R/T790M) = molecular target: T1, EGFR(L858R/T790M) (Homo sapiens, UniProt P00533, L858R/T790M); assay: EGFR biochemical assay (HTRF), IC50 determinations
T1 construct: purchased from Carna (GST-a.a. 669-1210)
Method: All EGFR biochemical assays were carried out by HTRF method. […] The substrate peptide Biotin-TK-peptide was purchased from Cis-Bio. […] All reactions were carried out at room temperature in white ProxiPlate™ 384-well Plus plates (PerkinElmer) and were quenched with 5 μL of 0.2 M EDTA at 60 min. Five L of the detection reagents (2.5 ng PT66K and 0.05 μg SAXL per well) were added, the plates were incubated at room temperature for 1 h and then read in EnVision reader. […] For no-preincubation condition, the compounds were added to the assay solution containing ATP and peptide, and the reaction was initiated by addition of enzyme. For pre-incubation conditions, the compounds were added to the assay solution containing enzyme and peptide, and pre-incubated at room temperature for desired period of time, then the reaction was initiated by addition of ATP.

[1] = molecular target: human EGFR WT (NIH/3T3 cells, EGF-induced) (Homo sapiens, UniProt P00533); assay: EGFR target modulation in engineered NIH/3T3 cell lines (phospho-EGFR Y1068 AlphaLISA), EGFR WT; type: cell-based; conditions: engineered NIH/3T3 cells, read-out: NIH3T3 IC50 (μM) EGFR (WT)
Method: (§1) EGFR Target Modulation in Engineered NIH/3T3 Cell Lines Tissue Culture.
(§2) The cells were harvested with 0.05% Trypsin/EDTA (Hyclone #SH30236.01), re-suspended in 5% FBS/DMEM Pen/Strep without Puromycin and plated at 9,000 cells per well in 50 μl of media in a 384-well black plate with clear bottoms (Greiner #789068G). The cells were allowed to incubate overnight in a 37° C., 5% CO2 humidified tissue culture incubator. A 12-point test compound curve was prepared by serial diluting a 10 μM stock 1:3 in DMSO in a 384-well compound plate (Greiner #789201L). The serial diluted compounds were transferred to the plate containing cells by using a 50 nl Pin Head device (Perkin Elmer) and the cells were placed back in the incubator for 3 hours. Only the EGFR WT-expressing cells were induced with 50 ng/ml EGF (Preprotech #AF-100-15) for 5 minutes before lysis. […] The plates were shaken at 4° C. for 5 minutes with foil top at maximum speed. […] The plates were sealed with a foil top and frozen at −80° C. and thawed when needed.
(§3) The frozen aliquots were thawed and briefly centrifuged. All antibodies and beads were diluted in 1× AlphaLISA HiBlock Buffer (PE #AL004C). […] Goat anti-total EGFR (R&D Systems #AF231) was added and allowed to equilibrate for 1 hour at room temperature at 1 nM final concentration.
(§4) With these parameters, the IC50's for each compound in each cell line was calculated using non-linear curve fitting analysis.

[2] = molecular target: human EGFR L858R (NIH/3T3 cells) (Homo sapiens, UniProt P00533, L858R); assay: EGFR target modulation in engineered NIH/3T3 cell lines (phospho-EGFR Y1068 AlphaLISA), EGFR L858R; type: cell-based; conditions: engineered NIH/3T3 cells, read-out: NIH3T3 IC50 (μM) EGFR (L858R)
Method: as §1, §2, §3, §4

[3] = molecular target: human EGFR L858R/T790M (NIH/3T3 cells) (Homo sapiens, UniProt P00533, L858R/T790M); assay: EGFR target modulation in engineered NIH/3T3 cell lines (phospho-EGFR Y1068 AlphaLISA), EGFR L858R/T790M; type: cell-based; conditions: engineered NIH/3T3 cells, read-out: NIH3T3 IC50 (μM) EGFR (L858R/T790M)
Method: as §1, §2, §3, §4

[4] = EGFR (L858R/T790M) with 90 min pre-incubation, read-out: IC50 (μM) Column B
[5] = EGFR (L858R/T790M) with no pre-incubation, read-out: IC50 (μM) Column A

T1 sequence (P00533 669-1210 T790M/L858R): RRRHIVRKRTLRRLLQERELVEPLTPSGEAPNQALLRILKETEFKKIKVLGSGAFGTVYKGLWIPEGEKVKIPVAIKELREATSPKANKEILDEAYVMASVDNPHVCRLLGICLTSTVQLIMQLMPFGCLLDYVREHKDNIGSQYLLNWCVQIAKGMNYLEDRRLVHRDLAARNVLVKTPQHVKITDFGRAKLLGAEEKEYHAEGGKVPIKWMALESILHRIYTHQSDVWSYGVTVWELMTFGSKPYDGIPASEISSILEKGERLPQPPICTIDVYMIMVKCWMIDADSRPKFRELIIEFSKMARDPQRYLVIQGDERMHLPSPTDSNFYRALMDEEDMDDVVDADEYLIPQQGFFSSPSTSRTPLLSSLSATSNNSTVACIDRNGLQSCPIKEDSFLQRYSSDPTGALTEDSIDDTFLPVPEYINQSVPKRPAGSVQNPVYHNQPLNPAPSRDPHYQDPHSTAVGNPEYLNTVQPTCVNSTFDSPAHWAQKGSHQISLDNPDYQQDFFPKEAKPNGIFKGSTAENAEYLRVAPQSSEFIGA
Sequence of human EGFR WT (NIH/3T3 cells, EGF-induced) (P00533 25-1210): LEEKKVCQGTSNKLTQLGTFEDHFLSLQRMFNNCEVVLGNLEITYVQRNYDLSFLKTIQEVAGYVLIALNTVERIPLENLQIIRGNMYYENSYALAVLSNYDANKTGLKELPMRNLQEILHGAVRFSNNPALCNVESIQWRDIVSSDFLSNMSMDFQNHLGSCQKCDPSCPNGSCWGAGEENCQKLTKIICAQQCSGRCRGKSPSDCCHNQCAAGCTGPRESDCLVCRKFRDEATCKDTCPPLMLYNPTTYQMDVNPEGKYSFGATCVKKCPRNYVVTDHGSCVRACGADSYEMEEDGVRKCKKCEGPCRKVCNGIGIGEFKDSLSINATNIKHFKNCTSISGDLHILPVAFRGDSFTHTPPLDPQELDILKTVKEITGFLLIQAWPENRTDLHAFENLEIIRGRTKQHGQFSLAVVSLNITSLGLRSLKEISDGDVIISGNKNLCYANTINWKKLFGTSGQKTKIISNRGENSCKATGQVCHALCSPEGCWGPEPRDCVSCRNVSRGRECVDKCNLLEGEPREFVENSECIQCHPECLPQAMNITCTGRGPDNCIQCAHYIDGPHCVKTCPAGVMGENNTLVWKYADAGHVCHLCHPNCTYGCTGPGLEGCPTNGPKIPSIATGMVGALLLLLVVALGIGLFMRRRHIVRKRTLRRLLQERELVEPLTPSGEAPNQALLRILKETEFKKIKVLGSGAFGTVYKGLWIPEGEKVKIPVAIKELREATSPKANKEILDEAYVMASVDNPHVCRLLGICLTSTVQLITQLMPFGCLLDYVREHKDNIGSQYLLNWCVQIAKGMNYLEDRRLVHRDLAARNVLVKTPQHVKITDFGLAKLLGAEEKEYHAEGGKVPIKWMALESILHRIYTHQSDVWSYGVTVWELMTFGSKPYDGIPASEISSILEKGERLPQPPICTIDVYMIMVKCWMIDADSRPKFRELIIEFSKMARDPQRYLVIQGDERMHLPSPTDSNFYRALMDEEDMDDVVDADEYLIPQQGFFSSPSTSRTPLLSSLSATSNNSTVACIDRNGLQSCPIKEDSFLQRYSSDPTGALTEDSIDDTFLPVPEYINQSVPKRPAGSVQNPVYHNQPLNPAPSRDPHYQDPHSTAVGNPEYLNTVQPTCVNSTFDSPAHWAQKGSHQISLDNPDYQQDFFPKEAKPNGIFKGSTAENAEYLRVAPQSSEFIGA
Sequence of human EGFR L858R (NIH/3T3 cells) (P00533 25-1210 L858R): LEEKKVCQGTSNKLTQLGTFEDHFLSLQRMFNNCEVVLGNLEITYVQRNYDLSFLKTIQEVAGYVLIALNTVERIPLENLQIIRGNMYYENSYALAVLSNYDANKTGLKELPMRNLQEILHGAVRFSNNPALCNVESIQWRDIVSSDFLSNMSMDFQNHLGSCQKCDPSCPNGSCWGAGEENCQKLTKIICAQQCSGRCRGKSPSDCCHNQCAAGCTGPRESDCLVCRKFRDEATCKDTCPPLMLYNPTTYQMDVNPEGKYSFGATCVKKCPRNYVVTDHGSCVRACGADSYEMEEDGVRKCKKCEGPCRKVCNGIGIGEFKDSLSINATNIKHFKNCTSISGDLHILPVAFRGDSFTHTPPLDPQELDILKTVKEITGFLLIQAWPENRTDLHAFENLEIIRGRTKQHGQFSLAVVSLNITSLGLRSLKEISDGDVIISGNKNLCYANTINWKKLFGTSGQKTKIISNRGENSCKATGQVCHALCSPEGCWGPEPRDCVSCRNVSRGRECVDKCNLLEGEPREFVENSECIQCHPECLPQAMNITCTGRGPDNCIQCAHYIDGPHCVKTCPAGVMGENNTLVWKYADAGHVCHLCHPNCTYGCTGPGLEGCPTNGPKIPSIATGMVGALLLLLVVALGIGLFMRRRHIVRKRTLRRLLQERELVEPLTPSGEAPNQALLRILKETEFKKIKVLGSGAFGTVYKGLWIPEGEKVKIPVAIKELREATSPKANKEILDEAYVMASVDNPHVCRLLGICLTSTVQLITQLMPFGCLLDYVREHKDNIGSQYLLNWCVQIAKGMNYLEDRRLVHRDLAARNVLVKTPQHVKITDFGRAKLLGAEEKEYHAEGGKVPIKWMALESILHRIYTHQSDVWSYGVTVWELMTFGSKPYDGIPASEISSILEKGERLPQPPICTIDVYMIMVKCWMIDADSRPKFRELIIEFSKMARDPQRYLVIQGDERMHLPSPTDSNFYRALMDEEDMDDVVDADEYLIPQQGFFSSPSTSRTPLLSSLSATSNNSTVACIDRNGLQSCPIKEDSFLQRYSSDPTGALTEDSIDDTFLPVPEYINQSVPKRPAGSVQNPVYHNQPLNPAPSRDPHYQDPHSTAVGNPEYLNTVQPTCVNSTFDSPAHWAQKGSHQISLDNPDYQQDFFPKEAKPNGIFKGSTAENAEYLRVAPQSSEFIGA
Sequence of human EGFR L858R/T790M (NIH/3T3 cells) (P00533 25-1210 T790M/L858R): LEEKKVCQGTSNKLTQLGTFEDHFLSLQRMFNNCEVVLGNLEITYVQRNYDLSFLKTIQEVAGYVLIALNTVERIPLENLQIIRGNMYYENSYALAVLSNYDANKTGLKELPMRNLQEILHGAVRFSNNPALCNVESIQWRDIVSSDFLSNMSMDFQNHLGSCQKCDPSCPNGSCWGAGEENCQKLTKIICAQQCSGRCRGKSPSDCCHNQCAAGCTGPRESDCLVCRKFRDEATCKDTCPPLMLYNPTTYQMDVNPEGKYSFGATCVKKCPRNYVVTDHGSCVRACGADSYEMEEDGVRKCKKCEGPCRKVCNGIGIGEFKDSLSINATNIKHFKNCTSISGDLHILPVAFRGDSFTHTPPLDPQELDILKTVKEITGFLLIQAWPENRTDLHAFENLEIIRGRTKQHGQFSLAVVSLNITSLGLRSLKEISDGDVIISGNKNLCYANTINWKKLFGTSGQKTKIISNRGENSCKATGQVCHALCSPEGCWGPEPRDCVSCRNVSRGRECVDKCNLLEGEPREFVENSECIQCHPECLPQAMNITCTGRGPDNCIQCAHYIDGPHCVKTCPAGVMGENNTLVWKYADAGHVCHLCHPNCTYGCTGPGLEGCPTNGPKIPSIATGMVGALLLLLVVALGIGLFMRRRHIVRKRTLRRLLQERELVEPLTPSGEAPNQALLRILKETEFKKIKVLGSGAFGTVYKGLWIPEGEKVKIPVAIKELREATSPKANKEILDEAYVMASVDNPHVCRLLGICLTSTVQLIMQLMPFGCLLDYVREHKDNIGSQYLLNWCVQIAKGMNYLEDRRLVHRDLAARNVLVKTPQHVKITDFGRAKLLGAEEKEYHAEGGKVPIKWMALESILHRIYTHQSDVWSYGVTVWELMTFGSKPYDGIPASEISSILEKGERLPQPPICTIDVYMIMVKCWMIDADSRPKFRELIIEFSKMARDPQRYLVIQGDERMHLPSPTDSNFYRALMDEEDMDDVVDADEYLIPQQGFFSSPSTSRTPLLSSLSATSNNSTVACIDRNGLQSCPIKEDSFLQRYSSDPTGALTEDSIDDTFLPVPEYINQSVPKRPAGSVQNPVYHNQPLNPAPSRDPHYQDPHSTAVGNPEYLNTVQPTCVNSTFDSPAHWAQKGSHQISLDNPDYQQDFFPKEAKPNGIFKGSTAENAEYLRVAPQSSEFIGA

IC50 (EGFR(L858R/T790M); [4])	IC50 (EGFR(L858R/T790M); [5])	IC50 [1]	IC50 [2]	IC50 [3]	SMILES
0.119 µM	10.8 µM	> 10 µM	4.7 µM	0.46 µM	C=CC(=O)N1CCC[C@@H](n2c(NC(=O)c3cccc(C(F)(F)F)c3)nc3cc(C(=O)OC)ccc32)C1 [Example 17-110]
< 0.001 µM	0.127 µM	> 10 µM	0.259 µM	0.016 µM	C=CC(=O)N1CCC[C@@H](n2c(NC(=O)c3cccc(C(F)(F)F)c3)nc3cc(CO)ccc32)C1 [Example 17-121]
0.003 µM	0.068 µM	> 7.6 µM	0.087 µM	0.013 µM	C=CC(=O)N1CCC[C@@H](n2c(NC(=O)c3cccc(C(F)(F)F)c3)nc3cc(CN4CCC(F)(F)C4)ccc32)C1 [Example 17-125]
0.128 µM	2.62 µM	> 10 µM	4.8 µM	0.14 µM	C=CC(=O)N1CCCC(n2c(NC(=O)c3cccc(C(F)(F)F)c3)nc3c2CCN(C(=O)OC)C3)C1 (stereo not drawn) [Example 17-167]
0.095 µM	1.11 µM	> 2.77 µM	0.6 µM	0.072 µM	C=CC(=O)N1CCCC(n2c(NC(=O)c3cccc(C(F)(F)F)c3)nc3c2CCN(S(C)(=O)=O)C3)C1 (stereo not drawn) [Example 17-168]
0.186 µM	1.75 µM	8.2 µM	1.75 µM	0.14 µM	C=CC(=O)N1CCCC(n2c(NC(=O)c3cccc(C(F)(F)F)c3)nc3c2CCN(C(C)=O)C3)C1 (stereo not drawn) [Example 17-169]
0.006 µM	0.66 µM	> 10 µM	0.39 µM	0.01 µM	C=CC(=O)N1CCCC(n2c(NC(=O)c3cccc(C(F)(F)F)c3)nc3c2CN(C(=O)OC)CC3)C1 (stereo not drawn) [Example 17-170]
0.316 µM	2.4 µM	9.9 µM	1.86 µM	0.16 µM	C=CC(=O)N1CCCC(n2c(NC(=O)c3cccc(C(F)(F)F)c3)nc3c2CN(S(C)(=O)=O)CC3)C1 (stereo not drawn) [Example 17-171]
0.268 µM	1.75 µM	8.7 µM	1.4 µM	0.173 µM	C=CC(=O)N1CCCC(n2c(NC(=O)c3cccc(C(F)(F)F)c3)nc3c2CN(C(C)=O)CC3)C1 (stereo not drawn) [Example 17-172]
0.285 µM	6.6 µM	> 10 µM	0.67 µM	0.84 µM	C=CC(=O)N1CCCC(n2c(NC(=O)c3cccc(C(F)(F)F)c3)nc3c2CN(C)CC3)C1 (stereo not drawn) [Example 17-173]

More lines, now with the values behind:

SMILES	IC50 (EGFR(L858R/T790M); [4])	IC50 (EGFR(L858R/T790M); [5])	IC50 [1]	IC50 [2]	IC50 [3]
Cc1cccc2nc(NC(=O)c3ccnc(OC(F)(F)F)c3)n([C@@H]3CCCCN(C(=O)/C=C/CN(C)C)C3)c12 [Example 17-102]	< 0.001 µM	0.002 µM	0.047 µM	0.001 µM	0.002 µM
Cc1cccc2nc(NC(=O)c3cc(Cl)nc(OC(F)(F)F)c3)n([C@@H]3CCCCN(C(=O)/C=C/CN(C)C)C3)c12 [Example 17-104]	< 0.001 µM	0.018 µM	0.61 µM	0.023 µM	0.02 µM
C=CC(=O)N1CCCCC(n2c(NC(=O)c3ccccc3)nc3cccc(C(=O)N4CCS(=O)(=O)CC4)c32)C1 (stereo not drawn) [Example 17-115]	0.013 µM	3.5 µM	> 10 µM	1.6 µM	0.165 µM
CN(C)C/C=C/C(=O)N1CCCCC(n2c(NC(=O)c3cccc(C(F)(F)F)c3)nc3cc(CO)cc(C#N)c32)C1 (stereo not drawn) [Example 17-116]	< 0.001 µM	0.011 µM	0.47 µM	0.019 µM	0.008 µM
C=CC(=O)N1CCC[C@@H](n2c(NC(=O)c3cccc(C(F)(F)F)c3)nc3cc(CN4C[C@@H](O)[C@H](O)C4)ccc32)C1 [Example 17-120]	0.028 µM	0.69 µM	> 10 µM	8.2 µM	0.86 µM
C=CC(=O)N1CCCC[C@@H](n2c(NC(=O)c3ccccc3)nc3cc(CN(C)CCS(C)(=O)=O)cc(C)c32)C1 [Example 17-127]	< 0.001 µM	0.002 µM	0.099 µM	0.004 µM	0.001 µM
C=CC(=O)N1CCCC[C@@H](n2c(NC(=O)c3ccccc3)nc3cc(COCCOC)cc(C)c32)C1 [Example 17-128]	< 0.001 µM	0.007 µM	0.186 µM	0.006 µM	0.002 µM
C=CC(=O)N1CCCC[C@@H](n2c(NC(=O)c3ccccc3)nc3cccc(COCCOC)c32)C1 [Example 17-130]	0.006 µM	0.119 µM	1.41 µM	0.094 µM	0.016 µM
C=CC(=O)N1CCCC[C@@H](n2c(NC(=O)c3ccccc3)nc3cccc(CO)c32)C1 [Example 17-131]	< 0.001 µM	0.005 µM	0.311 µM	0.01 µM	0.002 µM
C=CC(=O)N1CCCC[C@@H](n2c(NC(=O)c3ccccc3)nc3cccc(CN(C)CCS(C)(=O)=O)c32)C1 [Example 17-133]	0.001 µM	0.018 µM	1.29 µM	0.041 µM	0.006 µM
C=CC(=O)N1CCCCC(n2c(NC(=O)c3ccccc3)nc3cccc(C(=O)NCCC(=O)OC)c32)C1 (stereo not drawn) [Example 17-134]	0.01 µM	0.93 µM	> 10 µM	0.63 µM	0.073 µM
C=CC(=O)N1CCCCC(n2c(NC(=O)c3ccccc3)nc3cccc(C(=O)NCC(=O)OC)c32)C1 (stereo not drawn) [Example 17-135]	0.008 µM	0.62 µM	> 10 µM	0.4 µM	0.045 µM
C=CC(=O)N1CCCCC(n2c(NC(=O)c3ccccc3)nc3cccc(C(=O)NCCC(=O)O)c32)C1 (stereo not drawn) [Example 17-136]	0.03 µM	1.76 µM	8.2 µM	> 10 µM	6.5 µM
C=CC(=O)N1CCCCC(n2c(NC(=O)c3ccccc3)nc3cccc(C(=O)NCC(=O)O)c32)C1 (stereo not drawn) [Example 17-137]	0.044 µM	1.55 µM	> 10 µM	> 10 µM	7.9 µM
C=CC(=O)N1CCCCC(n2c(NC(=O)c3ccccc3)nc3cccc(-c4nc(C)no4)c32)C1 (stereo not drawn) [Example 17-138]	0.009 µM	0.147 µM	> 10 µM	0.45 µM	0.067 µM
C=CC(=O)N1CCCCC(n2c(NC(=O)c3ccccc3)nc3cccc(C(=O)NCCS(C)(=O)=O)c32)C1 (stereo not drawn) [Example 17-139]	0.005 µM	0.147 µM	> 9.1 µM	0.305 µM	0.043 µM
C=CC(=O)N1CCCCC(n2c(NC(=O)c3ccccc3)nc3cccc(C(=O)N4C[C@@H](O)[C@H](O)C4)c32)C1 (stereo partly drawn) [Example 17-140]	0.043 µM	0.94 µM	7.9 µM	1.64 µM	0.181 µM
C=CC(=O)N1CCOCC(n2c(NC(=O)c3ccccc3)nc3cccc(-c4nc(C)no4)c32)C1 (stereo not drawn) [Example 17-141]	0.01 µM	0.247 µM	7.8 µM	0.68 µM	0.097 µM
CN(C)C/C=C/C(=O)N1CCC[C@@H](n2c(NC(=O)c3cccc(C(F)(F)F)c3)nc3cc(CO)ccc32)C1 [Example 17-143]	0.014 µM	0.233 µM	> 10 µM	0.313 µM	0.046 µM
C=CC(=O)N1CCCC[C@@H](n2c(NC(=O)c3ccnc(C)c3)nc3cc(CN4CC[C@H](O)C4)cc(C)c32)C1 [Example 17-146]	< 0.001 µM	0.002 µM	0.137 µM	0.003 µM	0.004 µM
